One data set relates to Phytophthora infestans. Format: in vivo. As to conditions: tomato plants, preventive spray, 500 ppm of active ingredient, evaluated 5 days after inoculation.
The conditions of data set [1]: pH 2.7.

The record followed here is patent US20160002217A1, “FUNGICIDAL 3--OXADIAZOLONE DERIVATIVES” (BAYER CROPSCIENCE AG, priority 2013, published 2016).

Marks after values point to notes of the source that are not given here.

As to `CC(Oc1ccccc1)C(=O)Nc1nc(CON=C(c2ccsc2)c2noc(=O)n2C)cs1` (racemic) [Example 43], the “% efficacy” value in the data set with Phytophthora infestans amounted to 98%. Also, the LogP in data set [1] is 3.37^[a]. As for `Cn1c(C(=NOCc2cccc(NC(=O)OC(C)(C)C)n2)c2ncccn2)noc1=O` (single isomer, unassigned) [Example 27], in data set [1], the LogP is 2.66^[a][b]. With `Cn1c(C(=NOCc2cccc(NC(=O)OC(C)(C)C)n2)c2ncccn2)noc1=O` (single isomer, unassigned) [Example 28], in data set [1], the LogP was 2.56^[a][c].

As for `CCn1oc(=O)nc1C(=NOCc1cccc(N)n1)c1ccccn1` [Example 1], the LogP in data set [1] is 0.69^[a]. Consider `CCCCCOC(=O)Nc1cccc(CON=C(c2ccccn2)c2nc(=O)on2CC)n1` [Example 2], for which the LogP in data set [1] was 3.42^[a]. Take `CCCCOC(=O)Nc1cccc(CON=C(c2ccccn2)c2noc(=O)n2C)n1` [Example 3]: in the data set on Phytophthora infestans, the “% efficacy” value is 100%. The LogP in data set [1] is 3.25^[a]. Regarding `CCCCCC(=O)Nc1cccc(CON=C(c2ccccn2)c2noc(=O)n2C)n1` [Example 4], the “% efficacy” value with Phytophthora infestans is given as 88%. Besides, the LogP in data set [1] was 3.13^[a].

In the case of `CCCCOC(=O)Nc1cccc(CON=C(c2ccccn2)c2nc(=O)on2CC)n1` [Example 5], the LogP in data set [1] was 2.96^[a]. In the case of `CCCCC(=O)Nc1cccc(CON=C(c2ccccn2)c2nc(=O)on2CC)n1` [Example 6], the LogP in data set [1] was 2.49^[a]. Take `C#CCCOC(=O)Nc1cccc(CON=C(c2ccccn2)c2noc(=O)n2C)n1` [Example 7]: the “% efficacy” value in the data set with Phytophthora infestans is 85%. Moreover, the LogP in data set [1] was 2.56^[a]. Regarding `CCn1oc(=O)nc1C(=NOCc1cccc(NC(=O)OC(C)(C)C)n1)c1ccccn1` [Example 8], the LogP in data set [1] was 2.84^[a]. In the case of `CCCCC(=O)Nc1cccc(CON=C(c2ccccn2)c2nc(=O)on2C)n1` [Example 10], the LogP in data set [1] was 2.25^[a]. Turning to `CCCCCC(=O)Nc1cccc(CON=C(c2ccccn2)c2nc(=O)on2CC)n1` [Example 11], the LogP in data set [1] is 2.84^[a]. In the case of `CCCCCOC(=O)Nc1cccc(CON=C(c2ccccn2)c2noc(=O)n2C)n1` [Example 12], the “% efficacy” value with Phytophthora infestans stood at 85%. For the same compound, in data set [1], the LogP was 3.67^[a]. Turning to `Cn1c(C(=NOCc2cccc(N)n2)c2ccccn2)noc1=O` [Example 14], the LogP in data set [1] was 0.85^[a]. For `CCCCCOC(=O)Nc1cccc(CON=C(c2ccccn2)c2nc(=O)on2C)n1` [Example 15], the “% efficacy” value with Phytophthora infestans is listed as 88%. For the same compound, in data set [1], the LogP was 3.09^[a].

As to `CCCCCC(=O)Nc1cccc(CON=C(c2ccccn2)c2nc(=O)on2C)n1` [Example 18], the LogP in data set [1] was 2.61^[a].

Consider `CC(C)(C)OC(=O)Nc1nc(CON=C(c2ccsc2)c2noc(=O)[nH]2)cs1` [Example 20], for which the LogP in data set [1] was 3.20^[a]. Same read-out and setting: the value for `CCCCOC(=O)Nc1cccc(CON=C(c2ccccn2)c2nc(=O)on2C)n1` [Example 21] was 2.70^[a]; that for `CC(C)(C)OC(=O)Nc1nc(CON=C(c2noc(=O)[nH]2)c2cccs2)cs1` [Example 24] was 3.26^[a]. Still for that read-out and setting: as for `Cn1oc(=O)nc1C(=NOCc1cccc(NC(=O)OC(C)(C)C)n1)c1ncccn1` [Example 25], the figure is 2.14^[a].

Consider `CC(C)(C)OC(=O)Nc1cccc(CON=C(c2ncccn2)c2noc(=O)[nH]2)n1` [Example 26], for which, in data set [1], the LogP was 2.27^[a].

Consider `Cn1oc(=O)nc1C(=NOCc1cccc(N)n1)c1ncccn1` [Example 29], for which the LogP in data set [1] was 0.92^[a]. With `Cn1c(C(=NOCc2cccc(N)n2)c2ncccn2)noc1=O` [Example 30], in data set [1], the LogP was 0.39^[a].

Take `Cn1oc(=O)nc1C(=NOCc1cccc(NC(=O)OC(C)(C)C)n1)c1cccnc1` [Example 31]: in data set [1], the LogP is 2.28 + 2.37^[a].

Turning to `Cn1oc(=O)nc1C(=NOCc1cccc(N)n1)c1cccnc1` [Example 34], in data set [1], the LogP was 1.19^[a]. Still for that read-out and setting: the value for `Cn1c(C(=NOCc2cccc(N)n2)c2cccnc2)noc1=O` [Example 35] was 0.52 ± 0.46^[a]; that for `CC(C)(C)OC(=O)Nc1cccc(CON=C(c2ccncc2)c2noc(=O)[nH]2)n1` [Example 36] was 2.37^[a].

In the case of `Cn1oc(=O)nc1C(=NOCc1cccc(NC(=O)OC(C)(C)C)n1)c1ccncc1` [Example 37], in the data set on Phytophthora infestans, the “% efficacy” value is 80%. Also, the LogP in data set [1] was 2.21^[a]. For the compound `Cn1c(C(=NOCc2cccc(NC(=O)OC(C)(C)C)n2)c2ccncc2)noc1=O` [Example 38], the “% efficacy” value in the data set on Phytophthora infestans was determined as 100%. For the same compound, the LogP in data set [1] was 2.75^[a]. For `Cn1oc(=O)nc1C(=NOCc1cccc(N)n1)c1ccncc1` [Example 39], the LogP in data set [1] is 1.20^[c]. As to `Cn1c(C(=NOCc2cccc(N)n2)c2ccncc2)noc1=O` [Example 40], the LogP in data set [1] is 0.41^[a]. For the compound `CN(C(=O)OC(C)(C)C)c1nc(CON=C(c2cccs2)c2noc(=O)n2C)cs1` [Example 41], the LogP in data set [1] is 4.24^[a]. Consider `CCCCOC(=O)Nc1cccc(CON=C(c2ncccn2)c2nc(=O)on2C)n1` [Example 46], for which the LogP in data set [1] was 2.23^[a]. As for `CCCCCC(=O)Nc1cccc(CON=C(c2cccnc2)c2noc(=O)n2C)n1` [Example 47], the LogP in data set [1] is 2.86^[a]. Still for that read-out and setting: the value for `CCCCCC(=O)Nc1cccc(CON=C(c2ncccn2)c2nc(=O)on2C)n1` [Example 48] was 2.18^[a]. With `C#CCCOC(=O)Nc1cccc(CON=C(c2ncccn2)c2noc(=O)n2C)n1` [Example 54], in data set [1], the LogP was 2.08^[a]. For the compound `CCCCC(=O)Nc1cccc(CON=C(c2ncccn2)c2nc(=O)on2C)n1` [Example 58], the LogP in data set [1] was 1.84^[a]. Same read-out and setting: the value for `CCCCC(=O)Nc1cccc(CON=C(c2ncccn2)c2noc(=O)n2C)n1` [Example 61] was 2.23^[a]. With `CCCCC(=O)Nc1cccc(CON=C(c2cccnc2)c2nc(=O)on2C)n1` [Example 62], the LogP in data set [1] was 2.04^[a]. Same read-out and setting: as for `Cn1c(C(=NOCc2csc(NC(=O)c3ccc(F)cc3)n2)c2ccsc2)noc1=O` [Example 64], the figure is 3.26^[a].

`Cn1c(C(=NOCc2csc(N(COCC[Si](C)(C)C)C(=O)OC(C)(C)C)n2)c2ccsc2)noc1=O` [Example 65]: the LogP in data set [1] was 5.86^[a].

Turning to `CC(C)(C)OC(=O)N(COCC[Si](C)(C)C)c1nc(CON=C(c2ccsc2)c2noc(=O)[nH]2)cs1` [Example 66], the LogP in data set [1] is 5.45^[a]. `CCCCCOC(=O)Nc1nc(CON=C(c2ccsc2)c2noc(=O)n2C)cs1` [Example 68]: in data set [1], the LogP is 3.81^[a].

Regarding `Cn1c(C(=NOCc2csc(N(COCC[Si](C)(C)C)C(=O)OC(C)(C)C)n2)c2cccs2)noc1=O` [Example 70], the LogP in data set [1] was 5.84^[a]. Take `CC(C)(C)OC(=O)N(COCC[Si](C)(C)C)c1nc(CON=C(c2noc(=O)[nH]2)c2cccs2)cs1` [Example 72]: the LogP in data set [1] was 5.45^[a]. On to `CCCCC(=O)Nc1cccc(CON=C(c2ccncc2)c2nc(=O)on2C)n1` [Example 75], for which the LogP in data set [1] is 1.88^[a].

Turning to `C#CCCOC(=O)Nc1cccc(CON=C(c2ccncc2)c2nc(=O)on2C)n1` [Example 76], the LogP in data set [1] is 1.74^[a]. Take `CCCCCC(=O)Nc1cccc(CON=C(c2ccncc2)c2nc(=O)on2C)n1` [Example 77]: the LogP in data set [1] was 2.23^[a]. For the compound `CCCCCOC(=O)Nc1cccc(CON=C(c2ccncc2)c2nc(=O)on2C)n1` [Example 78], the LogP in data set [1] was 2.68^[a]. In the case of `CCCCOC(=O)Nc1cccc(CON=C(c2ccncc2)c2nc(=O)on2C)n1` [Example 79], the LogP in data set [1] is 2.32^[a]. As for `Cn1c(C(=NOCc2csc(N)n2)c2cccs2)noc1=O` [Example 81], the LogP in data set [1] is 1.38^[a].

For the compound `Cn1c(C(=NOCc2csc(NC(=O)c3ccc(F)cc3)n2)c2cccs2)noc1=O` [Example 85], the LogP in data set [1] was 3.20^[a]. On the same count and under the same terms, the value for `Cn1c(C(=NOCc2csc(NC(=O)COc3ccccc3)n2)c2cccs2)noc1=O` [Example 86] was 3.18^[a]; that for `CC(C)(C)OC(=O)Nc1nc(CON=C(C#N)c2ccsc2)cs1` [Example IV-01] was 3.62^[a]. For the compound `CC(C)(C)OC(=O)Nc1cccc(CON=C(C#N)c2ncccn2)n1` [Example IV-03], the LogP in data set [1] is 2.82^[a]. With `CC(C)(C)OC(=O)Nc1cccc(CON=C(C#N)c2ccncc2)n1` [Example IV-04], in data set [1], the LogP was 3.05^[a]. `CC(C)(C)OC(=O)Nc1nc(CON=C(C#N)c2cccs2)cs1` [Example IV-05]: the LogP in data set [1] is 3.65^[a]. For `CC(C)(C)OC(=O)N(COCC[Si](C)(C)C)c1nc(CON=C(C#N)c2cccs2)cs1` [Example IV-06], the LogP in data set [1] was 6.35^[a]. Take `CCOC(=O)c1nc(CON=C(C#N)c2ccsc2)cs1` [Example IV-08]: in data set [1], the LogP is 3.15^[a]. As to `Cc1nc(CON=C(C#N)c2ccsc2)cs1` [Example IV-09], the LogP in data set [1] was 1.45^[a].

In the case of `N#CC(=NOCc1csc(NC(=O)c2ccc(F)cc2)n1)c1ccsc1` [Example IV-10], the LogP in data set [1] was 3.51^[a].

`CC(C)(C)OC(=O)N(C(=O)OC(C)(C)C)c1nc(CON=C(C#N)c2ccsc2)cs1` [Example IV-11]: the LogP in data set [1] was 4.90^[a]. In the case of `CC(C)(C)OC(=O)Nc1cccc(CON=C(C(N)=NO)c2ccccn2)n1` [Example V-01], the LogP in data set [1] was 1.76^[a]. With `CC(C)(C)OC(=O)Nc1nc(CON=C(C(N)=NO)c2ccsc2)cs1` [Example V-02], the LogP in data set [1] was 2.17^[a]. `CC(C)(C)OC(=O)N(COCC[Si](C)(C)C)c1nc(CON=C(C(N)=NO)c2cccs2)cs1` [Example V-04]: the LogP in data set [1] was 4.60^[a]. Consider `CCOC(=O)c1nc(CON=C(C(N)=NO)c2ccsc2)cs1` [Example V-05], for which the LogP in data set [1] is 1.70^[a]. Turning to `CC(C)(C)OC(=O)Nc1cccc(CON=C(C(N)=NO)c2ccncc2)n1` [Example V-06], the LogP in data set [1] is 1.53^[a].

On to `CC(C)(C)OC(=O)Nc1cccc(CON=C(C(N)=NO)c2ncccn2)n1` [Example V-07], for which the LogP in data set [1] was 1.58 + 1.87^[a]. As to `CC(C)(C)OC(=O)Nc1nc(CON=C(C(N)=NO)c2cccs2)cs1` [Example V-08], the LogP in data set [1] is 2.26^[a].
